Source: US20080279795A1, “Tertiary Amine Functional Complex Polyester Polymers And Methods Of Production And Use” (priority 2003, published 2008)

What was measured:
[1] = tested on: EpiOccular® model made of human-derived epidermal keratinocytes cultured to make them similar to human corneal tissue; assay type: cell-based
Protocol: Irritancy to the eyes and to the skin was tested in-vitro using the EpiDerm® and EpiOccular® test models. EpiDerm® is a human test model of skin made up of normal epidermal keratinocytes. The EpiOccular® model is made of human-derived epidermal keratinocytes cultured to make them similar to human corneal tissue. In each of the tests, tissue samples are treated with the test article for various exposure times. Following treatment, the viability of the tissue is determined using MTT uptake and conversion, and the absorbance of the sample is measured at 540 nanometers (nm) wavelength using a reference wavelength of 690 nm. The viability is expressed as a percentage of control values. The mean percentage viability for each time point is used to calculate the ET50, which represents the time at which the tissue viability is reduced 50% compared to control tissue. […] Typically, higher molecular weight results in lower eye and skin irritancy.

[2] = Rubine Dye test for substantivity on hair (chromameter); conditions: Example 3, second matrix of prototypes
Source text: The substrate (i.e., surface to which they are applied) in cosmetic applications is either the hair or the skin. […] Cationic conditioning agents act by binding a moiety, typically a long chain alkyl group, to the hair or skin by electrostatic attraction (ionic bonding), but also, weaker forces such as dipole-dipole interactions, and furthermore van der Waals forces can assist in substrate binding. Substantivity is a term used to describe how well a conditioning agent binds to the surface of the substrate. Substantivity of hair conditioning agents is often determined by performing the Rubine Dye test. The Rubine Dye test is designed to show how much of the conditioning ingredient adheres to the hair. Results from the Rubine Dye test are normally evaluated by comparison to some known standard or benchmark.
The polyesteramine prototypes were tested internally for substantivity using the Rubine Dye test protocol. In the Rubine Dye test, the prototypes were benchmarked against Dehyquart® L-80 (dicocoylethyl hydroxyethylmonium methosulfate (and) propylene glycol), a commercial ester quaternary. The materials and equipment used in performing the Rubine Dye analysis were:
The protocol used to perform the Rubine Dye analysis on polyesteramine prototypes and Dehyquart® L-80 and the compositions of ingredients used is described below.
First, a stock dye solution was prepared using the following formula and preparation procedure: […]
In a small vessel, deionized water, Lumicrease Bordeaux 3LR Powder, and glacial acetic acid were agitated at about 20 to about 25° C. until a solution was obtained. […]
From about 0.95 to about 1.05 grams of hair was weighed out and glued onto pre-cut plastic sheets (1.5″×1.5″) using a hot glue gun to attach the swatches to the sheets. […] Quantitative comparisons of dye up-take and relative substantivity of each polymer were performed using a Minolta chromameter. Additionally, dye up-take was evaluated qualitatively by taking photographs of the hair swatches using a digital camera. […]

| Structure (SMILES) | EpiOcular ® ET50 ([1]; exposure times 16, 64 and […], time at which tissue viability is reduced 50% vs control) | irritancy classification, eyes ([1]; from EpiOcular ET50) | a-scale value ([2]; higher a = more deposition) | L-scale value ([2]; lower L = more deposition) | b-scale value ([2]; lower b = more deposition) |
| --- | --- | --- | --- | --- | --- |
| CCCCCCCCCCCCCCCC[N+](C)(C)C.[Cl-] [cetrimonium chloride] | 116.9 min | more irritating |  |  |  |
| CCCCCCCCCCCCCCCCCC(=O)NCCCN(C)C [Lexamine ® S-13, stearamidopropyldimethylamine] |  |  | 19.16 | 65.15 | 8.57 |
